Source: paper PMC9845330 (Communications Biology, 2023)
Non-standard residues stand in square brackets, D forms with d. Residues, ends and D or L forms follow the SMILES beside them. *: point of attachment. X1 = O=C(CCCC[C@@H]1SC[C@@H]2NC(=O)N[C@@H]21)NCCCOCCOCCOCCCN*; PEG12 = NCCOCCOCCOCCOCCOCCOCCOCCOCCOCCOCCOCCOCCC(=O)O

Experiments:
H1299 cells = assay: Cell internalization by flow cytometry, absolute uptake (molecules per cell) of peptide-streptavidin-Alexa Fluor 647; format: cell-based, human; conditions: for Molecules Internalized Per Cell: Average
Description: Optimizing MGS4 as a monomer is efficient but the optimal valency of the truncated peptide may be different than that of the full-length peptide. The peptide was synthesized as a monomer (MGS4_V8), dimer (MGS4_V9), and tetramer (MGS4_V10). To obtain quantitative data, we moved from measuring the relative fluorescence of dye-labeled peptide to the determination of the average number of dye molecules internalized per cell. […] The dimer MGS4_V9 has an EC50 7-fold lower indicating there is a synergistic effect in going from a monomer to a dimer (Fig. 2a and Table 2). However, there is only a 2-fold decrease in going from a dimer to a tetrameric peptide (MGS4_V10). We also calculated the EC50 on three other NSCLC cell lines (Table 2 and Supplementary Figure 3). […] The average number of peptides internalized per cell at saturating conditions varies, with H1993 cells internalizing the highest number of peptides at all three valencies (Table 2). This is likely due to differing levels of receptor expression on the cell type. The average molecules internalized at 50 nM in one hour follows the same trend (Fig. 2b).
Non-internalized peptide was removed, and the mean number of peptides internalized per cell was determined to calculate the EC50. Individual measurements are shown. The mean is shown as an “X”. Error bars, in black, represent standard error measurements and are below the height of the symbols in some cases. b The average number of peptide molecules per cell at 50 nM at 1 h was determined on four NSCLC cell lines and one normal human bronchial epithelial cell line (HBEC). Error bars represent SEM and individual data points are shown. c H1299 cells were incubated with 50 nM peptide-Streptavidin-Qdot605 for 1 h, removed, and replaced with normal growth media. After 24 h, cells were fixed, and counterstained with DAPI (blue). Representative maximally projected z-stacks for each group reveal no apparent difference in peptide internalization or localization. The scale bar represents 10 µm.
Biotinylated peptide was conjugated to streptavidin-R-phycoerythrin or streptavidin-Alexa Fluor 647 (1:1 molar ratio) for 30 min. The open binding sites on streptavidin were quenched with RPMI 1640 and diluted to the indicated concentration. Tumor cells were grown to 90% confluency in a 12 well plate, then incubated with 500 µl peptide-dye conjugate at 37 °C. After 1 h, peptide was removed, and the cells were washed 3x with PBS (137 mM NaCl, 2.7 mM KCl, 10 mM Na2HPO4, 1.8 mM KH2PO4, pH 7.4), 2x with 0.1 M HCl-glycine pH2.2 in 0.9% NaCl, and 1x PBS rinse. Cells were removed by trypsinization. Flow cytometry was performed on a BD FACSCelesta, and data were analyzed on Flowing software. Cells were gated based on the forward and side scatter to include only viable cells and a minimum of 10,000 events were counted. A region containing <5% of the cells in the negative control was established, and relative peptide uptake by the mean fluorescence intensity of that population. For absolute peptide uptake per cell, a standard curve was generated using Quantum™ Alexa Fluor 647 microspheres (Bangs Laboratory, Fishers, IN). A representative linear regression showing the correlation of molecule equivalents soluble fluorophores (MESF) vs the mean fluorescence intensity (MFI) is shown in Supplemental Figure 6. Cells were gated based on the forward and side scatter to include only viable cells and a minimum of 10,000 events were counted. MFI was determined at 50% at peak height. Molecules internalized per cell were determined by the standard curve relating MESF to MFI and divided by the number dye molecules/MGS conjugate. An example is shown in supplemental Figure 7. GraphPad Prism® was used for non-linear regression curve fitting to calculate an EC50. Parameters and statistical analysis are provided (Supplementary Tables 2–6). Experiments were repeated a minimum of three times. […]

[1] = system: Lysosome labelled H1299 cells; assay: Colocalization with lysosomes by confocal microscopy; format: cell-based, human; conditions: 24 h, Streptavidin Alexa Fluor 555 conjugate
Method: Lysosome-labelled cells (green) were treated with MGS4_V8-Streptavidin Alexa Fluor 555 for 30 min, 1 h, 4 h, or 24 h. Peptide-containing vesicles (red) are seen at 30 min separate from the labeled lysosomes, which by 1 h have started to colocalize with lysosomal vesicles (yellow). MGS4_V8 remains colocalized with lysosomes at 24 h with >70% of the signal colocalized with lysosomes (Fig. 3b). Trafficking, accumulation, and retention in the lysosomes is even more evident in the compressed maximally projected z-stack of the cells (Fig. 3c). Of note, lysosomal regeneration is observed at 24 h as witnessed by increased green signal from the GFP that is not colocalized with previously internalized MGS4_V8. […]
The time course for lysosomal accumulation was performed by imaging at indicated time points using biotinylated peptide conjugated to Streptavidin-Alexa Fluor 555, Streptavidin-Qdot605, or streptavidin-saporin. Saporin was detected using anti-saporin rabbit polyclonal antibody AB-41AP (1:100 dilution) (Advanced Targeting Systems Bio, San Diego, CA). […] Each pixel of a single slice was evaluated for passing the threshold in red (box 1), green (box 2), or both (box3) for colocalization. Mander’s coefficients are calculated for each slice with 0 indicating no colocalization and 1 being complete colocalization.

CC(=O)N[C@@H](Cc1ccccc1)C(=O)N[C@@H](Cc1c[nH]cn1)C(=O)N[C@@H](C)C(=O)N[C@H](C(=O)N1CCC[C@H]1C(=O)N[C@@H](CCC(N)=O)C(=O)N[C@@H](CO)C(=O)N[C@@H](Cc1ccccc1)C(=O)N[C@@H](Cc1ccc(O)cc1)C(=O)N[C@H](C(=O)NCCOCCOCCOCCOCCOCCOCCOCCOCCOCCOCCOCCOCCC(=O)N[C@@H](CCC(=O)NCCCOCCOCCOCCCNC(=O)CCCC[C@@H]1SC[C@@H]2NC(=O)N[C@@H]21)C(N)=O)[C@@H](C)O)C(C)C [MGS4_V8] (Ac-FHAVPQSFYT[PEG12]E(X1)-NH2)
Molecules Internalized Per Cell (H1299 cells; 0.01 nM): 0
Molecules Internalized Per Cell (H1299 cells; 1 nM): 88
Molecules Internalized Per Cell (H1299 cells; 10 nM): 3648
Molecules Internalized Per Cell (H1299 cells; 20 nM): 3316
Molecules Internalized Per Cell (H1299 cells; 30 nM): 10700
Molecules Internalized Per Cell (H1299 cells; 40 nM): 21020
Molecules Internalized Per Cell (H1299 cells; 50 nM): 36807
Saturation (molecules) (H1299 cells; H1299 Cells, peptides internalized per cell at saturation): 40,400 ± 5100 molecules
HillSlope (H1299 cells; Supplementary Table 3): 5.657
LogIC50 (H1299 cells; Supplementary Table 3): -7.417
Top (H1299 cells; Supplementary Table 3, molecules per cell): 40400
signal colocalized with lysosomes [1]: > 70%
stable in human serum for: > 48 h
